These results are taken from PMC5404542, “In Vitro and In Vivo Antifungal Profile of a Novel and Long-Acting Inhaled Azole, PC945, on Aspergillus fumigatus Infection” (Antimicrobial Agents and Chemotherapy, 2017).

This data set in a line: Systemic exposure after topical/intranasal treatment. The class given is in vivo. As to conditions: data not shown.

Regarding `Cc1cc(N2CCN(c3ccc(C(=O)Nc4ccc(F)cc4)cc3)CC2)ccc1OC[C@@H]1CO[C@@](Cn2cncn2)(c2ccc(F)cc2F)C1` [PC945, 4-[4-(4-{[(3R,5R)-5-(2,4-difluorophenyl)-5-(1H-1,2,4-triazol-1-ylmethyl)oxolan-3-yl]methoxy}-3-methylphenyl)piperazin-1-yl]-N-(4-fluorophenyl)benzamide], the systemic exposure result is “very low systemic exposure”.
